Reference: patent publication US20260191968A1, “PROTAC DEGRADERS OF MLLT1 AND/OR MLLT3” (DARK BLUE THERAPEUTICS LTD, priority 2024, published 2026)

Biological target: T1, MLLT1 (Homo sapiens, UniProt Q03111)
T1 construct: host or cells: MV4-11
T1 sequence (Q03111 1-559): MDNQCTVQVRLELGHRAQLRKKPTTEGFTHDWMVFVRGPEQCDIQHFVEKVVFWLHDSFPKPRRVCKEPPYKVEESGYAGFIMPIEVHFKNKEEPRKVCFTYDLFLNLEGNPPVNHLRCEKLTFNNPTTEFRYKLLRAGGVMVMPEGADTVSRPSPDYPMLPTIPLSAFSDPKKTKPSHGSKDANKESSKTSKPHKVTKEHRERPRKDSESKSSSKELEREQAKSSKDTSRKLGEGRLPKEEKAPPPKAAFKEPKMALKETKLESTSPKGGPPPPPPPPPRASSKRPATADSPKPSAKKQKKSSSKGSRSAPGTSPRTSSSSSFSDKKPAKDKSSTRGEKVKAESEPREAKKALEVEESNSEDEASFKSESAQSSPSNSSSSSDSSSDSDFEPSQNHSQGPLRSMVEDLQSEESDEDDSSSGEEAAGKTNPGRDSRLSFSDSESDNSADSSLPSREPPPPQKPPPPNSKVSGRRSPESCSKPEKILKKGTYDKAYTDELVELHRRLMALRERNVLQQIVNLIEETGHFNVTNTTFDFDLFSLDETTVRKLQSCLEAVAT
Assay: MLLT1 degradation assay in MV4-11 cells (JESS chemiluminescent detection), three concentrations, 24 h
Assay type: cell-based
Conditions: with respect to DMSO control
Outline: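 Read-out is % MLLT1 degradation versus DMSO, from band peak areas on a JESS chemiluminescent system. Cells (MV4-11) were exposed for 24 h at 37° C to three compound levels, 10, 100 and 1000 nM, in 0.1% DMSO.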

Structure (SMILES) | MLLT1% Degradation @ 0.01 μM | MLLT1% Degradation @ 0.1 μM | MLLT1% Degradation @ 1 μM
CN1CCC[C@@H]1c1cc2cnc(NC(=O)c3ccc(N4CCC(OCC5CCN(c6cccc7c6C(=O)N(C6CCC(=O)NC6=O)C7=O)CC5)CC4)cc3)cc2[nH]1 (stereo partly drawn) [Example 151, 4-(4-((1-(2-(2,6-dioxopiperidin-3-yl)-1,3-dioxoisoindolin-4-yl)piperidin-4-yl)methoxy)piperidin-1-yl)-N-(2-((R)-1-methylpyrrolidin-2-yl)-1H-pyrrolo[3,2-c]pyridin-6-yl)benzamide] | C (Category C: 25% ≤ C < 50% degradation) | B (Category B: 50% ≤ B < 75% degradation) | A (Category A: A ≥ 75% degradation)
CN1CCC[C@@H]1c1cc2cnc(NC(=O)c3ccc(CCCC#Cc4cccc(C(=O)N[C@H]5CCC(=O)NC5=O)c4F)cc3)cc2[nH]1 [Example 219, N—((S)-2,6-dioxopiperidin-3-yl)-2-fluoro-3-(5-(4-((2-((R)-1-methylpyrrolidin-2-yl)-1H-pyrrolo[3,2-c]pyridin-6-yl)carbamoyl)phenyl)pent-1-yn-1-yl)benzamide] | A (Category A: A ≥ 75% degradation) | A (Category A: A ≥ 75% degradation) | B (Category B: 50% ≤ B < 75% degradation)
CN1CCC[C@@H]1c1cc2cnc(NC(=O)CCCC3CCCN(c4cccc5c4C(=O)N(C4CCC(=O)NC4=O)C5=O)C3)cc2[nH]1 (stereo partly drawn) [Example 44, 4-(1-(2-(2,6-dioxopiperidin-3-yl)-1,3-dioxoisoindolin-4-yl)piperidin-3-yl)-N-(2-((R)-1-methylpyrrolidin-2-yl)-1H-pyrrolo[3,2-c]pyridin-6-yl)butanamide] | – | C (Category C: 25% ≤ C < 50% degradation) | C (Category C: 25% ≤ C < 50% degradation)
Cc1cc(OC2CCN(c3ccc(C(=O)Nc4cc5[nH]c([C@H]6CCCN6C)cc5cn4)cn3)CC2)ccc1-c1cccc2c1CN(C1CCC(=O)NC1=O)C2=O (stereo partly drawn) [Example 196, 6-(4-(4-(2-(2,6-dioxopiperidin-3-yl)-1-oxoisoindolin-4-yl)-3-methylphenoxy)piperidin-1-yl)-N-(2-((R)-1-methylpyrrolidin-2-yl)-1H-pyrrolo[3,2-c]pyridin-6-yl)nicotinamide] | D (Category D: D < 25% degradation) | B (Category B: 50% ≤ B < 75% degradation) | A (Category A: A ≥ 75% degradation)
C[C@@H]1CN(CC2CCN(c3cccc4c3CN(C3CCC(=O)NC3=O)C4=O)CC2)CCN1c1ccc(C(=O)Nc2cc3[nH]c([C@H]4CCCN4C)cc3cn2)cc1 (relative stereo) [Example 134, 4-((R)-4-((1-(2-((rel-R)-2,6-dioxopiperidin-3-yl)-1-oxoisoindolin-4-yl)piperidin-4-yl)methyl)-2-methylpiperazin-1-yl)-N-(2-((R)-1-methylpyrrolidin-2-yl)-1H-pyrrolo[3,2-c]pyridin-6-yl)benzamide] | B (Category B: 50% ≤ B < 75% degradation) | A (Category A: A ≥ 75% degradation) | A (Category A: A ≥ 75% degradation)
CN1CCC[C@@H]1c1cc2cnc(NC(=O)N3CCC(CCC#Cc4cccc5c4CN(C4CCC(=O)NC4=O)C5=O)CC3)cc2[nH]1 (stereo partly drawn) [Example 1, 4-(4-(2-(2,6-dioxopiperidin-3-yl)-1-oxoisoindolin-4-yl)but-3-yn-1-yl)-N-(2-((R)-1-methylpyrrolidin-2-yl)-1H-pyrrolo[3,2-c]pyridin-6-yl)piperidine-1-carboxamide] | C (Category C: 25% ≤ C < 50% degradation) | C (Category C: 25% ≤ C < 50% degradation) | C (Category C: 25% ≤ C < 50% degradation)
CN1CCC[C@@H]1c1cc2cnc(NC(=O)c3ccc(OCCC4CCN(c5ccc(C(=O)N[C@H]6CCC(=O)NC6=O)c(F)c5)CC4)cc3F)cc2[nH]1 [Example 215, N—((S)-2,6-dioxopiperidin-3-yl)-2-fluoro-4-(4-(2-(3-fluoro-4-((2-((R)-1-methylpyrrolidin-2-yl)-1H-pyrrolo[3,2-c]pyridin-6-yl)carbamoyl)phenoxy)ethyl)piperidin-1-yl)benzamide] | D (Category D: D < 25% degradation) | C (Category C: 25% ≤ C < 50% degradation) | C (Category C: 25% ≤ C < 50% degradation)
CN1CCC[C@@H]1c1cc2cnc(NC(=O)c3cc(F)c(CCCC#Cc4cccc5c4CN(C4CCC(=O)NC4=O)C5=O)c(F)c3)cc2[nH]1 (stereo partly drawn) [Example 84, 4-(5-(2-(2,6-dioxopiperidin-3-yl)-1-oxoisoindolin-4-yl)pent-4-yn-1-yl)-3,5-difluoro-N-(2-((R)-1-methylpyrrolidin-2-yl)-1H-pyrrolo[3,2-c]pyridin-6-yl)benzamide] | B (Category B: 50% ≤ B < 75% degradation) | A (Category A: A ≥ 75% degradation) | A (Category A: A ≥ 75% degradation)
CN1CCC[C@@H]1c1cc2cnc(NC(=O)c3ccc(CCCC#Cc4cccc(N5CCC(=O)NC5=O)n4)cc3)cc2[nH]1 [Example 63, (R)-4-(5-(6-(2,4-dioxotetrahydropyrimidin-1(2H)-yl)pyridin-2-yl)pent-4-yn-1-yl)-N-(2-(1-methylpyrrolidin-2-yl)-1H-pyrrolo[3,2-c]pyridin-6-yl)benzamide] | D (Category D: D < 25% degradation) | D (Category D: D < 25% degradation) | C (Category C: 25% ≤ C < 50% degradation)
CN1CCC[C@@H]1c1cc2cnc(NC(=O)c3ccc(N4CC[C@@H](CC#Cc5cccc6c5CN(C5CCC(=O)NC5=O)C6=O)C4)nc3)cc2[nH]1 (stereo partly drawn) [Example 226, 6-((3R)-3-(3-(2-(2,6-dioxopiperidin-3-yl)-1-oxoisoindolin-4-yl)prop-2-yn-1-yl)pyrrolidin-1-yl)-N-(2-((R)-1-methylpyrrolidin-2-yl)-1H-pyrrolo[3,2-c]pyridin-6-yl)nicotinamide] | B (Category B: 50% ≤ B < 75% degradation) | B (Category B: 50% ≤ B < 75% degradation) | C (Category C: 25% ≤ C < 50% degradation)
CN1CCC[C@@H]1c1cc2cnc(NC(=O)c3ccc(OCCC4CCN(c5cccc6c5C(=O)N(C5CCC(=O)NC5=O)C6=O)CC4)cc3F)cc2[nH]1 (stereo partly drawn) [Example 217, 4-(2-(1-(2-(2,6-dioxopiperidin-3-yl)-1,3-dioxoisoindolin-4-yl)piperidin-4-yl)ethoxy)-2-fluoro-N-(2-((R)-1-methylpyrrolidin-2-yl)-1H-pyrrolo[3,2-c]pyridin-6-yl)benzamide] | C (Category C: 25% ≤ C < 50% degradation) | A (Category A: A ≥ 75% degradation) | A (Category A: A ≥ 75% degradation)
CN1CCC[C@@H]1c1cc2cnc(NC(=O)c3cccc(N4CCN(CC5CCN(c6ccc7c(c6)CN(C6CCC(=O)NC6=O)C7=O)CC5)CC4)c3)cc2[nH]1 (stereo partly drawn) [Example 192, 3-(4-((1-(2-(2,6-dioxopiperidin-3-yl)-1-oxoisoindolin-5-yl)piperidin-4-yl)methyl)piperazin-1-yl)-N-(2-((R)-1-methylpyrrolidin-2-yl)-1H-pyrrolo[3,2-c]pyridin-6-yl)benzamide] | B (Category B: 50% ≤ B < 75% degradation) | B (Category B: 50% ≤ B < 75% degradation) | C (Category C: 25% ≤ C < 50% degradation)
CN1CCC[C@@H]1c1cc2cnc(NC(=O)c3ccc(N4CCN(CC5CCN(c6cc7c(cc6F)C(=O)N(C6CCC(=O)NC6=O)C7=O)CC5)CC4)cc3)cc2[nH]1 (stereo partly drawn) [Example 180, 4-(4-((1-(2-(2,6-dioxopiperidin-3-yl)-6-fluoro-1,3-dioxoisoindolin-5-yl)piperidin-4-yl)methyl)piperazin-1-yl)-N-(2-((R)-1-methylpyrrolidin-2-yl)-1H-pyrrolo[3,2-c]pyridin-6-yl)benzamide] | C (Category C: 25% ≤ C < 50% degradation) | B (Category B: 50% ≤ B < 75% degradation) | B (Category B: 50% ≤ B < 75% degradation)
CN1CCC[C@@H]1c1cc2cnc(NC(=O)c3ccc(C4CCN(c5cccc6c5C(=O)N(C5CCC(=O)NC5=O)C6=O)CC4)cc3)cc2[nH]1 (stereo partly drawn) [Example 15, 4-(1-(2-(2,6-dioxopiperidin-3-yl)-1,3-dioxoisoindolin-4-yl)piperidin-4-yl)-N-(2-((R)-1-methylpyrrolidin-2-yl)-1H-pyrrolo[3,2-c]pyridin-6-yl)benzamide] | B (Category B: 50% ≤ B < 75% degradation) | A (Category A: A ≥ 75% degradation) | B (Category B: 50% ≤ B < 75% degradation)
CN1CCC[C@@H]1c1cc2cnc(NC(=O)c3ccc(CCCN4CCN(c5cccc6c5C(=O)N(C5CCC(=O)NC5=O)C6=O)CC4)cc3)cc2[nH]1 (stereo partly drawn) [Example 130, 4-(3-(4-(2-(2,6-dioxopiperidin-3-yl)-1,3-dioxoisoindolin-4-yl)piperazin-1-yl)propyl)-N-(2-((R)-1-methylpyrrolidin-2-yl)-1H-pyrrolo[3,2-c]pyridin-6-yl)benzamide] | B (Category B: 50% ≤ B < 75% degradation) | A (Category A: A ≥ 75% degradation) | A (Category A: A ≥ 75% degradation)
